The source of these data is patent US12612407B2, “Imidazo[2,1-f][1,2,4]triazin-4-amine derivatives as TLR7 agonist” (BEIGENE, LTD., priority 2020, dated 2026).

One test deals with T1, human TLR7 (Homo sapiens, UniProt Q9NYK1).
T1 construct: host or cells: HEK293 (HEK-Blue hTLR7)
T1 sequence (Q9NYK1 27-1049): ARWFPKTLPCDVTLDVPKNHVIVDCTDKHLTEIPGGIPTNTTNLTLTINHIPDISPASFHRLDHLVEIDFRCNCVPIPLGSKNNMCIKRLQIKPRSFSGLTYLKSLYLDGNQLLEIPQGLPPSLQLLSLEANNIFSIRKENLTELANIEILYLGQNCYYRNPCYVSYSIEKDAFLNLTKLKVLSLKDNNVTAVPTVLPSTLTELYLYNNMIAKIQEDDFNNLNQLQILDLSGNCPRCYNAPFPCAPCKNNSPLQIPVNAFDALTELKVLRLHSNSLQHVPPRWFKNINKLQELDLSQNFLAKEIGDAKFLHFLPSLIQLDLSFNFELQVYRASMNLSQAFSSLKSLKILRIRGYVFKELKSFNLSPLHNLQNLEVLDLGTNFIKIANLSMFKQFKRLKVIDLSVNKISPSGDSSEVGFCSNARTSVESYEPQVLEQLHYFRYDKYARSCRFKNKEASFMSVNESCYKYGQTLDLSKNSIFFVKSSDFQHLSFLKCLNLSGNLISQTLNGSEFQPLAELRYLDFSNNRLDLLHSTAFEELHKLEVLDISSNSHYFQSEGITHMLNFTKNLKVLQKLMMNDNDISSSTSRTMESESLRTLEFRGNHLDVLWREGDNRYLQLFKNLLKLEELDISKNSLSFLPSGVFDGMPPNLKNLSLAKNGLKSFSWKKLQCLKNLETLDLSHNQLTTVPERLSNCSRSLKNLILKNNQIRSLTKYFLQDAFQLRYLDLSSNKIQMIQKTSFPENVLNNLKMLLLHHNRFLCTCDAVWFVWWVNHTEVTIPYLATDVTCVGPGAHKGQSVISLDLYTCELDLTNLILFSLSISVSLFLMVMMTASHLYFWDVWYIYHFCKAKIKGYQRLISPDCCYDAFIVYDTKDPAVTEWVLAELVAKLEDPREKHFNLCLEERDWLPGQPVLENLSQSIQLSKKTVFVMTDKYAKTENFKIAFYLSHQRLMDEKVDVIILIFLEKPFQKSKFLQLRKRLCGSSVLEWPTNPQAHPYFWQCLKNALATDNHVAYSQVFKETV
Briefly: TLR7 Stimulation Determined Using HEK-Blue Detection. The following applies: HEK-Blue hTLR7 cells, 16 hr, percentages of maximum activation with Resiquimod, Table 1, B233-B247. The class given is cell-based. The text has this:
TLR7 Stimulation Determined Using HEK-Blue Detection
(§1) This assay was designed for studying the stimulation of human TLR7 protein in HEK-Blue hTLR7 tool cell line by monitoring the activation of NF-κB. HEK-Blue hTLR7 cells were obtained by co-transfection of the hTLR7 gene and an optimized secreted embryonic alkaline phosphatase (SEAP) reporter gene into HEK293 cells. The SEAP reporter gene was placed under the control of the IFN-β minimal promoter fused to five NF-κB and AP-1-binding sites. Stimulation with a TLR7 ligand activates NF-κB and AP-1 which induce the expression of SEAP. Levels of SEAP can be easily determined with HEK-Blue Detection, a cell culture medium that allows for real-time detection of SEAP. HEK-Blue Detection contains all the nutrients necessary for cell growth and a specific SEAP color substrate. The hydrolysis of the substrate by SEAP produces a purple/blue color that can be measured with a spectrophotometer.
When growing to 50-80% confluency, HEK-Blue hTLR7 cells were plated into 96-well plate (costar 3599) at a density of 40000 cells/well. Then compounds were added with serial dilutions over 10 points with a 0.04 nM-10 μM final concentration range in 0.1% DMSO/HEK-Blue Detection. The plates were then incubated for 16 hr at 37° C. in 5% CO2 and vortex for 30 s before measurement. The optical density at 620-655 nm was read on BMG PHERAstar FSX instrument. The EC50 for each compound was determined by calculating the percentages of the maximum activation identified with Resiquimod.

In a further test the target is T2, human TLR 8 protein (Homo sapiens, UniProt Q9NR97).
T2 construct: expressed in transfected cells; host or cells: HEK293 (HEK-Blue hTLR8)
T2 sequence (Q9NR97 27-1041): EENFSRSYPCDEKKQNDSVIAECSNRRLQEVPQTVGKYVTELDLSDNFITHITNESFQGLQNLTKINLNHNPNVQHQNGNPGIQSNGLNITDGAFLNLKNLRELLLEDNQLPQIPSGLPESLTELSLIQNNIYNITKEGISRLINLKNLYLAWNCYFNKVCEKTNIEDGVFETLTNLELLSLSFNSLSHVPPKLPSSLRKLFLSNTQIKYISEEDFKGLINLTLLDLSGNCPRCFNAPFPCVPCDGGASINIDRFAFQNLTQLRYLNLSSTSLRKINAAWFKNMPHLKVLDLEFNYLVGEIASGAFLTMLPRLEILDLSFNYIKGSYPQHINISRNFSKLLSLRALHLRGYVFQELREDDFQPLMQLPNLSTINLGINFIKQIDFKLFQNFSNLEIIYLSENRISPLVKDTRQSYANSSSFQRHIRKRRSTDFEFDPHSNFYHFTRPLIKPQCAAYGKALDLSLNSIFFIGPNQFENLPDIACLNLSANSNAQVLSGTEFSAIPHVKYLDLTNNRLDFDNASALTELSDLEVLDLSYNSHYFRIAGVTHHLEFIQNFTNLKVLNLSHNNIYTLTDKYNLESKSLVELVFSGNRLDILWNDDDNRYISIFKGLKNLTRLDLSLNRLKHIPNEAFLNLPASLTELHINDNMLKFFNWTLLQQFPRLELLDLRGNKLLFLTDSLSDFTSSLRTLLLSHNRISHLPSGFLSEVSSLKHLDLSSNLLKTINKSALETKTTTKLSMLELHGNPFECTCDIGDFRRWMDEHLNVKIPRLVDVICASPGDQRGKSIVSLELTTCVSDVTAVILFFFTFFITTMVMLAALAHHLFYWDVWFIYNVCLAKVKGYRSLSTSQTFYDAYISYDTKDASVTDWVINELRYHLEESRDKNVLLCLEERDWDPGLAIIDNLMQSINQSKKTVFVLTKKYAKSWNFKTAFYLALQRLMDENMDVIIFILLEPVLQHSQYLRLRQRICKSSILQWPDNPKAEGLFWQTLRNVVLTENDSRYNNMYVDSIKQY
The test is described as follows: TLR8 Stimulation determined using HEK-Blue Detection. It counts as cell-based. The following applies: HEK-Blue hTLR8 cells, 16 hr, percentages of maximum activation with Resiquimod or Motolimod, Table 3.
Excerpt: TLR8 Stimulation determined using HEK-Blue Detection
as §1, with “TLR 8” for “TLR7”, “hTLR8” for “hTLR7”
When growing to 50-80% confluency, HEK-Blue hTLR7/8 cells were plated into 96-well plate (costar 3599) at a density of 40000 cells/well. Then compounds were added with serial dilutions over 10 points with a 1 nM-10 uM final concentration range in 0.1% DMSO/HEK-Blue Detection. The plates were then incubated for 16 hr at 37° C. in 5% CO2. The optical density at 620-655 nm was read on BMG PHERAstar FSX instrument. The EC50 for each compound was determined by calculating the percentages of the maximum activation identified with Resiquimod or Motolimod.

Structures are written as SMILES.

For the compound `CCC[C@H](C)Nc1nc(N)c2ncc(Cc3cnc(N4CCC(CN(C)CCNC)CC4)c(C)c3)n2n1` [Compound B245, (S)-7-((5-methyl-6-(4-((methyl(2-(methylamino)ethyl)amino)methyl)piperidin-1-yl)pyridin-3-yl)methyl)-N2-(pentan-2-yl)imidazo[2,1-f][1,2,4]triazine-2,4-diamine], the concentration giving a half-maximal response (EC50) – broadly, the concentration that produces a half-maximal response – on human TLR7 is 2.5 nM; on human TLR 8 protein, 485 nM.
On the same counts, the results for `CCC[C@H](C)Nc1nc(N)c2ncc(Cc3cnc(N4CCN(C(=O)CN)CC4)c(C)c3)n2n1` [Compound B246, (S)-2-amino-1-(4-(5-((4-amino-2-(pentan-2-ylamino)imidazo[2,1-f][1,2,4]triazin-7-yl)methyl)-3-methylpyridin-2-yl)piperazin-1-yl)ethan-1-one] are 10.9 nM and > 10000 nM.
On the same counts, the results for `CCC[C@H](C)Nc1nc(N)c2ncc(Cc3cnc(N4CCN(CCO)CC4)c(C)c3)n2n1` [Compound B247, (S)-2-(4-(5-((4-amino-2-(pentan-2-ylamino)imidazo[2,1-f][1,2,4]triazin-7-yl)methyl)-3-methylpyridin-2-yl)piperazin-1-yl)ethan-1-ol] are 0.6 nM and > 10000 nM.
